Consider 16 compounds from patent US9994577B2, “Azepanyl-derivatives and pharmaceutical compositions comprising the same with antiparasitic activity” (Merck Patent GmbH, priority 2014, dated 2018).

Each structure is given as a SMILES string. A value given as a limit tells only on which side of the number the result lay.

In one assay the test system is P. falciparum NF54. The assay can be described thus: P. falciparum growth assay ([3H]hypoxanthine incorporation). To be noted: Plasmodium falciparum, [3H]-hypoxanthine incorporation at 72 h, read-out: EC50 (nM), concentration that inhibits by 50% the incorporation of [3H]-hypoxanthine. Type of assay: cell-based. Here is the method: P. falciparum strain NF54 was obtained from the Research and Reference Reagent Resource Center (MR4) (Manassas, Va.). The two strains were maintained in vitro by a modification of the method of Trager and Jensen. Cultures were maintained in A positive (A+) human erythrocytes suspended at 5% hematocrit in complete medium. 5 g albumax II (Gibco-Invitrogen, Cat No#11021037), 2.5 mg gentamicin (Sigma Aldrich), 25 mM HEPES (Invitrogen), 5 mg hypoxanthine (Sigma), and 1 L of RPMI 1640 (Invitrogen, Cat No#11875085). Cultures were grown in 100 mm petri-dishes (BD Falcon) at a volume of 15 mL and were kept in a standard gas environment of 4% CO2 and 3% O2 at temperature 37° C. in a tri-gas incubator (Cat#3131, Thermo Scientific Forma Series II Water Jacketed). Parasite growth and morphology were observed daily using thin smears at 100× (oil immersion) magnification following staining with Geimsa stain. […]
Parasite growth was detected in assay by the traditional [3H]hypoxanthine incorporation assay as previously described by Desjardins and colleagues (Antimicrob. Agents Chemother., 16(6), 710, 1979). To perform the [3H]hypoxanthine incorporation assay, the new antimalarial agents were serially diluted 1:1 into hypoxanthine-free complete medium to a final volume of 100 μL (final antimalarial agent concentration range, 10,000 nM to 4.8 nM may change in special case) in 96 well sterile cell culture plates. […] All cultures used in the study are albumax II adopted. The microtiter plates were incubated in chamber in a standard gas environment at 37° C. for 72 h. After 48 h of incubation and prior to addition of 50 μL (0.5 μCi/well) 3H-Hypoxanthine (specific activity, 20 Ci/mmol, Conc. 1.0 mCi/ml; American Radiolabeled Chemicals, Inc., St. Louis, Mo.), culture growth was assessed by making the smears that ensures the culture has grown and assay plate is further incubated for 24 h.
Following the incubation period, the plates were harvested with a FilterMate cell harvester (Perkin Elmer) onto unifilter-96 GF/B plates, washed with distilled water to remove excess radiochemical and plates were kept for drying 37° C. overnight or 60° C. for 1 h. 50 μL of Microscint scintillation cocktail (Microscint-High Efficiency LSC-Cocktail; Perkin Elmer) added in the unifilter-96 GF/B plates and kept for 15-20 min. The plates were counted in a Top Count NXT microplate scintillation and luminescence counter (Perkin Elmer). The mean values for [3H]hypoxanthine incorporation in parasitized control and non-parasitized control erythrocytes were calculated.
`O[C@@H]1CNCCC[C@H]1n1c2ccc(C(F)(F)F)nc2c2cc(C(F)(F)F)cnc21` [Compound 23, (3R,4R)-4-(2,8-bis(trifluoromethyl)-5H-pyrrolo[2,3-b:4,5-b′]dipyridin-5-yl)azepan-3-ol]: the EC50 came out at 11.2 nM. Regarding `O[C@H]1CNCCC[C@@H]1n1c2ccc(C(F)(F)F)nc2c2cc(C(F)(F)F)cnc21` [Compound 24, (3S,4S)-4-(2,8-bis(trifluoromethyl)-5H-pyrrolo[2,3-b:4,5-b′]dipyridin-5-yl)azepan-3-ol], the EC50 turned out to be 2.3 nM. Consider `COc1cc2c(cc1C(F)(F)F)c1nc(C(F)(F)F)ccc1n2[C@H]1CCCNC[C@@H]1O` [Compound 18, (3S,4S)-4-(7-methoxy-2,8-bis(trifluoromethyl)-5H-pyrido[3,2-b]indol-5-yl)azepan-3-ol], for which the EC50 stood at 5.4 nM. Same read-out and setting: then `O[C@H]1CNCCCC1N1c2ccc(Cl)cc2Oc2cc(Cl)ccc21` (mixture of isomers) [10 (mixture of isomers), (3R,4R)-4-(3,7-dichloro-10H-phenoxazin-10-yl)azepan-3-ol], with 21 nM; and `COc1cc2c(cc1C(F)(F)F)c1nc(C(F)(F)F)ccc1n2[C@@H]1CCCNC[C@H]1O` [Compound 17, (3R,4R)-4-(7-methoxy-2,8-bis(trifluoromethyl)-5H-pyrido[3,2-b]indol-5-yl)azepan-3-ol], with 12.8 nM. Regarding `O[C@@H]1CNCCC[C@H]1n1c2ccc(Cl)cc2c2nc(C(F)(F)F)ncc21` [Compound 21, (3R,4R)-4-(8-chloro-2-(trifluoromethyl)-5H-pyrimido[5,4-b]indol-5-yl)azepan-3-ol], the EC50 amounted to 41.7 nM. Regarding `COc1cc(Cl)cc2c3nc(C(F)(F)F)ccc3n([C@@H]3CCCNC[C@H]3O)c12` [Compound 19, (3R,4R)-4-(8-chloro-6-methoxy-2-(trifluoromethyl)-5H-pyrido[3,2-b]indol-5-yl)azepan-3-ol], the EC50 was 24 nM. Take `COc1cc(Cl)cc2c3nc(C(F)(F)F)ccc3n([C@H]3CCCNC[C@@H]3O)c12` [Compound 20, (3S,4S)-4-(8-chloro-6-methoxy-2-(trifluoromethyl)-5H-pyrido[3,2-b]indol-5-yl)azepan-3-ol]: the EC50 came out at 13.1 nM. As for `O[C@H]1CNCCC[C@@H]1n1c2ccc(C(F)(F)F)cc2c2cc(C(F)(F)F)cnc21` (racemic) [Compound 14 (i), (3R,4R)-4-[3,6-bis(trifluoromethyl)pyrido[2,3-b]indol-9-yl]azepan-3-ol], the EC50 came out at 16.6 nM. Turning to `CS(=O)(=O)c1c(C(F)(F)F)ccc2c1c1cc(C(F)(F)F)ccc1n2C1CCCNC[C@@H]1O` (mixture of isomers) [6 (mixture of isomers), (3R,4R)-4-[4-methylsulfonyl-3,6-bis(trifluoromethyl)carbazol-9-yl]azepan-3-ol], the EC50 is 45.9 nM. Take `O[C@@H]1CNCCC[C@H]1n1c2ccc(C(F)(F)F)cc2c2cc(C(F)(F)F)ccc21` [Compound 3, (3R,4R)-4-[3,6-bis(trifluoromethyl)-9H-carbazol-9-yl]azepan-3-ol]: the EC50 was found to be 2.55 nM. With `O=C1CC[C@@H](n2c3ccc(Cl)cc3c3cc(Cl)ccc32)[C@H](O)CN1` [Compound 27, (5R,6R)-5-(3,6-dichloro-9H-carbazol-9-yl)-6-hydroxyazepan-2-one], the EC50 was 28.2 nM. In the case of `COc1cc2c(cc1Cl)c1cc(Cl)ccc1n2[C@H]1CCCNC[C@@H]1O` (racemic) [Compound 9, (3R,4R)-4-(3,6-dichloro-2-methoxy-9H-carbazol-9-yl)azepan-3-ol], the EC50 is 18 nM.

For the compound `COc1cc(Cl)cc2c3cc(Cl)ccc3n([C@H]3CCCNC[C@@H]3O)c12` (racemic) [8 (racemic), (3S,4S)-4-(3,6-dichloro-1-methoxy-9H-carbazol-9-yl)azepan-3-ol], the EC50 worked out at 32.9 nM.

Turning to `O[C@@H]1CNCCC[C@H]1n1c2ccc(Cl)cc2c2cc(Cl)ccc21` (stereo in doubt) [Compound 2, (3R,4R)-4-(3,6-dichloro-9H-carbazol-9-yl)azepan-3-ol], the EC50 worked out at 36.4 nM. The same measure, in the same setting: next, `O[C@H]1CNCCC[C@@H]1n1c2ccc(Cl)cc2c2nc(C(F)(F)F)ncc21` [Compound 22, (3S,4S)-4-(8-chloro-2-(trifluoromethyl)-5H-pyrimido[5,4-b]indol-5-yl)azepan-3-ol]: 46.1 nM.

In a further assay the test system is P falciparum PF3D/0087/N9. The assay can be described thus: In vivo efficacy in a murine model of P. falciparum-malaria (4-day test). The note with it: NODscidIL2Rynull mice engrafted with human erythrocytes. On the set-up: species or system Plasmodium falciparum. An excerpt: In vivo efficacy against P falciparum PF3D/0087/N9 for the compounds no. 2 and 3 as described in Examples 16 and 17.
The in vivo activity in a murine model of P. falciparum-malaria was adapted from the protocol as provided by Angulo-Barturen I, Jimènez-Diaz M B, Mulet T, Rullas J, Herreros E, et al. (2008) PLoS ONE 3(5): e2252. doi:10.1371/journal.pone.0002252.
This study measures the therapeutic efficacy of compounds no. 2 and 3 against Plasmodium falciparum growing in peripheral blood of NODscidIL2Rynull mice engrafted with human erythrocytes. The antimalarial efficacy of compounds no. 2 and 3 were assessed using a “4-day test”.
The parameters of efficacy estimated in the study are a) the dose of compounds no. 2 and 3 in mg·kg^−1 that reduces parasitemia at day 7 after infection by 90% with respect to vehicle-treated mice (parameter denoted as ED90)
Take `O[C@@H]1CNCCC[C@H]1n1c2ccc(C(F)(F)F)cc2c2cc(C(F)(F)F)ccc21` [Compound 3, (3R,4R)-4-[3,6-bis(trifluoromethyl)-9H-carbazol-9-yl]azepan-3-ol]: the “ED90, dose that reduces parasitemia at day 7 after infection by 90% with respect to vehicle-treated mice” value is < 3 mg/kg.

Take `O[C@@H]1CNCCC[C@H]1n1c2ccc(Cl)cc2c2cc(Cl)ccc21` (stereo in doubt) [Compound 2, (3R,4R)-4-(3,6-dichloro-9H-carbazol-9-yl)azepan-3-ol]: the “ED90, dose that reduces parasitemia at day 7 after infection by 90% with respect to vehicle-treated mice” value was < 10 mg/kg.
